Results taken from US20120276634A1, “SOMATIC EMBRYOGENESIS AND EMBRYO HARVESTING AND METHOD AND APPARATUS FOR PREPARING PLANT EMBRYOS FOR PLANT PRODUCTION” (ArborGen Inc., priority 2005, published 2012).

Legend:
[1] = test system: loblolly pine embryogenic cell lines (J and K); test: Effect of brassinolide in post cryostorage recovery medium on tissue production; assay type: cell-based; details: 0.1 μM in high casein Mi3
From the text: This experiment addresses whether brassinolide in the post-cryogenic storage bulk up medium has a positive effect on tissue recovery and growth enabling faster tissue multiplication and bulk up; and whether there is a cell-line-by-treatment (with or without brassinolide) interaction that can be exploited to enable genotype screening to optimize the best combination for each cell line in terms of both tissue growth and subsequent somatic embryo production. Two post-cryostrorage recovery (bulk up) media treatments were tested: Treatment #1: Mi3 medium (Tables 1 and 2) with high (2.0 g/liter) casein (the improved medium) Treatment #2: The same high casein Mi3 with addition of 0.1 μM Brassinolide Five J cell lines and five K lines were tested. For each cell line, 4 vials (2 post-cryo recovery media×2 replications) were retrieved from cryostorage. Recovered tissue from each vial was transferred to their respective fresh medium at 2 week intervals using a raft transfer method. Weight data was recorded for tissue derived from each vial at the 6th week after cryo-retrieval. At the 6th week, tissues from both reps of each treatment were pooled and maintained on their respective maintenance medium using a tissue dispersion method: 200 mg per sample in 1 ml liquid Mi3 medium dispersed by agitation and poured onto each culture plate. A total of 800 mg of tissue from each cell line×post-cryo media combination were plated on embryo development medium (4 reps of 200 mg/plate) to test embryo production capacity. Total tissue weight at each subculture was recorded to calculate the potential of each treatment for tissue bulk up and embryo production. Harvestable somatic embryos from each plate were recorded at 9 weeks of incubation on MSG embryo development medium (Tables 1 and 2). Embryo production data was analyzed separately for the J and K cell lines using PROCGLM procedure of SAS. Embryo production potential for each treatment was calculated by multiplying embryo production data by the total potential tissue produced in each cell line and treatment.

[2] = test system: loblolly pine embryogenic cell lines (J and K); test: Effect of brassinolide in post cryostorage recovery medium on embryo production and embryo production potential; assay type: cell-based; details: 0.1 μM in high casein Mi3
Method: Five J cell lines and five K lines were tested. For each cell line, 4 vials (2 post-cryo recovery media×2 replications) were retrieved from cryostorage. Recovered tissue from each vial was transferred to their respective fresh medium at 2 week intervals using a raft transfer method. Weight data was recorded for tissue derived from each vial at the 6th week after cryo-retrieval. At the 6th week, tissues from both reps of each treatment were pooled and maintained on their respective maintenance medium using a tissue dispersion method: 200 mg per sample in 1 ml liquid Mi3 medium dispersed by agitation and poured onto each culture plate. A total of 800 mg of tissue from each cell line×post-cryo media combination were plated on embryo development medium (4 reps of 200 mg/plate) to test embryo production capacity. Total tissue weight at each subculture was recorded to calculate the potential of each treatment for tissue bulk up and embryo production. Harvestable somatic embryos from each plate were recorded at 9 weeks of incubation on MSG embryo development medium (Tables 1 and 2). Embryo production data was analyzed separately for the J and K cell lines using PROCGLM procedure of SAS. Embryo production potential for each treatment was calculated by multiplying embryo production data by the total potential tissue produced in each cell line and treatment. The effect of brassinolide in the improved Mi3 bulk up medium on subsequent embryo production was tested. […] Since cell line×media treatment interaction was highly significant, data from each line was analyzed separately for each treatment.

Compound: CC(C)[C@H](C)[C@@H](O)[C@H](O)[C@@H](C)[C@H]1CC[C@H]2[C@@H]3COC(=O)[C@H]4C[C@H](O)[C@H](O)C[C@]4(C)[C@H]3CC[C@]12C [brassinolide, Brassinolide]
- amount of tissue compared to the improved medium without brassinolide ([1]; J lines): 127%
- amount of tissue compared to the improved medium without brassinolide ([1]; K lines): 191%
- tissue production ([1]; all 10 cell lines): produced highest amount of tissue
- increase in growth ([1]; slow-recovering cell lines K10, K11 and J4): two to three-fold
- embryo production potential compared to the improved Mi3 without brassinolide ([2]; J cell lines): 149%
- embryo production potential compared to the improved Mi3 without brassinolide ([2]; K cell lines): 136%
- embryo production potential, higher compared to the control ([2]; both J and K lines): > 35%
